The source of these data is ChEMBL document CHEMBL5291721, “A preclinical secondary pharmacology resource illuminates target-adverse drug reaction associations of marketed drugs” (Nat Commun, 2023).

For experiment [1], the target named is T1, Type-1 angiotensin II receptor (Homo sapiens, UniProt P30556).
T1 sequence (P30556 whole entry): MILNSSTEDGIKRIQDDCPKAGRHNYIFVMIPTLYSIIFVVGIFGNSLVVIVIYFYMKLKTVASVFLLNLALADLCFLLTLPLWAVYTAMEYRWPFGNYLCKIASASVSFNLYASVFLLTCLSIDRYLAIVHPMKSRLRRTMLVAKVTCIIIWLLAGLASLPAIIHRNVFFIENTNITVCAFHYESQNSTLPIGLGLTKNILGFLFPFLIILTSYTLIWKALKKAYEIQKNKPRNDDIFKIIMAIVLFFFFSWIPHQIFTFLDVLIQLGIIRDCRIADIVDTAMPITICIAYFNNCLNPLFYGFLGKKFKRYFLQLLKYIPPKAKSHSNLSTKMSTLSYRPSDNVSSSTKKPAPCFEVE

Experiment [2] deals with 5-hydroxytryptamine receptor 2B (Homo sapiens, UniProt P41595). Format: functional, cell-based.
Experiment [3] concerns the target Beta-2 adrenergic receptor (Homo sapiens, UniProt P07550).
The target in the next experiment is T2, Glucocorticoid receptor (Homo sapiens, UniProt P04150).
T2 sequence (P04150 whole entry): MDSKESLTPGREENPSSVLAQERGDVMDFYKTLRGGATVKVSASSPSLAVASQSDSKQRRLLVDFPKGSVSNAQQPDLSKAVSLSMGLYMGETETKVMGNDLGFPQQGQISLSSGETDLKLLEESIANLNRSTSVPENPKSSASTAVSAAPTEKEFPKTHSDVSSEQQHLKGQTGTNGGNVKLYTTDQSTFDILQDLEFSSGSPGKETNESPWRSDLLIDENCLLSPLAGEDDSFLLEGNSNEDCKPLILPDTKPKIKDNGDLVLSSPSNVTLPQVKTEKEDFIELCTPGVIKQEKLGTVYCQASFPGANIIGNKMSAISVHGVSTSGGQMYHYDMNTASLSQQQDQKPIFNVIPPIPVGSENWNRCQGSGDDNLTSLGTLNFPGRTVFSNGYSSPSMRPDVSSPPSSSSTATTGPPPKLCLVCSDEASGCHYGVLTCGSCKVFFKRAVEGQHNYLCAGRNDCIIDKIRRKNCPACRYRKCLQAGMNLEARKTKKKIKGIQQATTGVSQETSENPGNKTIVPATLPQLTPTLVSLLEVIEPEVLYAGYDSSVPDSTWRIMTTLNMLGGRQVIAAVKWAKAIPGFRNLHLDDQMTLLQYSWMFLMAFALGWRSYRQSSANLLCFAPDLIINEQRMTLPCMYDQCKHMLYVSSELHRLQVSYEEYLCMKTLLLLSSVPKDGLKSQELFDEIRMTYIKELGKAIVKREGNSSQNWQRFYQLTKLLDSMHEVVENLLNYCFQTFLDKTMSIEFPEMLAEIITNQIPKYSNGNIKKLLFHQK

The target in experiment [4] is T3, Alpha-2A adrenergic receptor (Homo sapiens, UniProt P08913).
T3 sequence (P08913 whole entry): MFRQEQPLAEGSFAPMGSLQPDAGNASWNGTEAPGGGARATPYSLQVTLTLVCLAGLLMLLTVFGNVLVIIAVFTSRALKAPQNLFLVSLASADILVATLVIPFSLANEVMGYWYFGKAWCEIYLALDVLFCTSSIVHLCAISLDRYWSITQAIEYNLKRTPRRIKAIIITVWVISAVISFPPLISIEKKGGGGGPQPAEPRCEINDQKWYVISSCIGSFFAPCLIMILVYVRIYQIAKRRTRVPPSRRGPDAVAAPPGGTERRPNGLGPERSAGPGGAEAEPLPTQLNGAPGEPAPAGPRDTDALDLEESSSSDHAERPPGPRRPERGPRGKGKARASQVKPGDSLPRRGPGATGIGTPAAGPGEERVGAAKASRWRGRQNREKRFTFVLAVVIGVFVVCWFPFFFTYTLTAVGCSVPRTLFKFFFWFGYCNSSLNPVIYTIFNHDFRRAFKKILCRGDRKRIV
Format: functional, cell-based.

The target of experiment [5] is Sodium-dependent dopamine transporter (Homo sapiens, UniProt Q01959).
The target in a further experiment is T4, Adenosine receptor A1 (Homo sapiens, UniProt P30542).
T4 sequence (P30542 whole entry): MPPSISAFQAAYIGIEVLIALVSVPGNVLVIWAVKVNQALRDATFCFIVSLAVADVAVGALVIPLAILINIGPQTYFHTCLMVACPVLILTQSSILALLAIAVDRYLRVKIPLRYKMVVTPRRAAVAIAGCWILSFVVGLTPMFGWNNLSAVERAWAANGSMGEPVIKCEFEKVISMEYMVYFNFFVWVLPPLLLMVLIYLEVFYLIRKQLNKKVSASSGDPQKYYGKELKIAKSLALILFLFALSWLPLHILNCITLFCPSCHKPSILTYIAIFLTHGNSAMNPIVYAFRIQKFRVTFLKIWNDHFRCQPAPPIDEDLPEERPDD

The target of experiment [6] is T5, Muscarinic acetylcholine receptor M2 (Homo sapiens, UniProt P08172).
T5 sequence (P08172 whole entry): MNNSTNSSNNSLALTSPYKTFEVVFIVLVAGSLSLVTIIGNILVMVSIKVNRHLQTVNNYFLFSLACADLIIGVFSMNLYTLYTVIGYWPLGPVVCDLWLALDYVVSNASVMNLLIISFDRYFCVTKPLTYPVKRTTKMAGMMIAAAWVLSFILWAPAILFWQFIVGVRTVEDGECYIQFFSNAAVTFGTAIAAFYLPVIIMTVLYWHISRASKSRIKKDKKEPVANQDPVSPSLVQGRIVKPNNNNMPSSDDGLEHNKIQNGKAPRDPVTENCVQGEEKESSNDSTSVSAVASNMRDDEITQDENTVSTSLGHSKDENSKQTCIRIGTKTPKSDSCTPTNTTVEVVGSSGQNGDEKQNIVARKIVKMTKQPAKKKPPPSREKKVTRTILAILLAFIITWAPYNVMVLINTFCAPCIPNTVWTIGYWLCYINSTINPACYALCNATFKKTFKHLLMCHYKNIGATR
Format: functional, cell-based.

The next experiment concerns the target Cannabinoid receptor 1 (Homo sapiens, UniProt P21554). Format: functional, cell-based.

The AC50 is the concentration at which the activity in the assay is half-maximal.
Further: assay procedure not described here.

Sodium-dependent dopamine transporter, sequence (Q01959 whole entry): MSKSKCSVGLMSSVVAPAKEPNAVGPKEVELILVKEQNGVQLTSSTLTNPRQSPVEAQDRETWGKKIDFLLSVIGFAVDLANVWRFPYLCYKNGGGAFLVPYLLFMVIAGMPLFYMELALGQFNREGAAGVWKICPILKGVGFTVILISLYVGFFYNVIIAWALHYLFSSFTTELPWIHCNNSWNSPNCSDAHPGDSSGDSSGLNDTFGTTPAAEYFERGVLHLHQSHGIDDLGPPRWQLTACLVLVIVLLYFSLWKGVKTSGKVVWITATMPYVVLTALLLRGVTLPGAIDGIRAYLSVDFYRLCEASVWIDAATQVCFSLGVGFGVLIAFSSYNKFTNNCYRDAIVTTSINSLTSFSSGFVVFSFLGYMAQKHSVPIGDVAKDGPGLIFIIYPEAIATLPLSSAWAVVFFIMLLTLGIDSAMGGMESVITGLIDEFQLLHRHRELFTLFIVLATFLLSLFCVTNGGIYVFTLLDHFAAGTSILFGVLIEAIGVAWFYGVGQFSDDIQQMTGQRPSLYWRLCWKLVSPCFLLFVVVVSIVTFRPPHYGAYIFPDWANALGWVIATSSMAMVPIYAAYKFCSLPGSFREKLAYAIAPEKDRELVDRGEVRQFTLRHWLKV
5-hydroxytryptamine receptor 2B, sequence (P41595 whole entry): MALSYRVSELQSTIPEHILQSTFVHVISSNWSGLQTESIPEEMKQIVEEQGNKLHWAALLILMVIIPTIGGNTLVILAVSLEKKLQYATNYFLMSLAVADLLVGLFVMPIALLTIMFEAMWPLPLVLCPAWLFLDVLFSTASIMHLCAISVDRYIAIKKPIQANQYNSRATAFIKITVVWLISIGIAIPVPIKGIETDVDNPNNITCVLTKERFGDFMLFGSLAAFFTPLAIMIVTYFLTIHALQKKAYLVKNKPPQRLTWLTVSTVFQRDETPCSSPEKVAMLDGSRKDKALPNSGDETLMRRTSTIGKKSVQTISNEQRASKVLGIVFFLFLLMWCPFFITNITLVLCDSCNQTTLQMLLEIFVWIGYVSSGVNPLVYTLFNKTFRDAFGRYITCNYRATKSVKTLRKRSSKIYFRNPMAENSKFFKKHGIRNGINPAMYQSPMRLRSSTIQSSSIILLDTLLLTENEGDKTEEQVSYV
Cannabinoid receptor 1, sequence (P21554 whole entry): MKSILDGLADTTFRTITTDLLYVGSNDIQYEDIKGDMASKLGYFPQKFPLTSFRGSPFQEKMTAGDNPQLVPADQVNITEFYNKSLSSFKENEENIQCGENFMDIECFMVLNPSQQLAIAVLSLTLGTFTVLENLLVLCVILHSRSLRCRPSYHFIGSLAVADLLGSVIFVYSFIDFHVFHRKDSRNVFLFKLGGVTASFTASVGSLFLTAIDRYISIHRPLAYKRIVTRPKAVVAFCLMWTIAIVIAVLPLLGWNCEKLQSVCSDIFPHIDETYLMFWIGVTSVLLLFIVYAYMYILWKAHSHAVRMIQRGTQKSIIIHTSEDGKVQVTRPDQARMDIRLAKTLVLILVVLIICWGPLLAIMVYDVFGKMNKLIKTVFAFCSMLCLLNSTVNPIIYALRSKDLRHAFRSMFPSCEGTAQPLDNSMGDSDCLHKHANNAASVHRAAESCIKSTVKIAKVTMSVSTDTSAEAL
Beta-2 adrenergic receptor, sequence (P07550 whole entry): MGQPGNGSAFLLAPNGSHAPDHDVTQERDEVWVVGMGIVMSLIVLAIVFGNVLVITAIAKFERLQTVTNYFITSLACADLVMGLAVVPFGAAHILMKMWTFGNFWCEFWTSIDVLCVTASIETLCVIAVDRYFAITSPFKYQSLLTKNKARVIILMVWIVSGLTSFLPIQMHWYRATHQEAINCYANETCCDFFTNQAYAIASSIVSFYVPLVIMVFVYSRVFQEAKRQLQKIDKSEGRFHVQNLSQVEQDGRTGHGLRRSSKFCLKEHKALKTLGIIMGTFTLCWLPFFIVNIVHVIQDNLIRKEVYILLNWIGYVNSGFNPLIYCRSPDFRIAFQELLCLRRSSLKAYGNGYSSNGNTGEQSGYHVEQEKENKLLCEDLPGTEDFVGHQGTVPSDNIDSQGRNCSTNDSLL

Turning to `C[C@H](CSC(=O)c1ccccc1)C(=O)N1C[C@@H](Sc2ccccc2)C[C@H]1C(=O)O` [ZOFENOPRIL], the AC50 (in [1]; in experiment [2]; in experiment [3]; at Glucocorticoid receptor; in [4]; in experiment [5]) was greater than 10 µM each time. The half-maximal activity concentration (AC50) (at Adenosine receptor A1; in experiment [6]) was greater than 10 µM in each case.
On to `C[C@]1(O)CC[C@H]2[C@@H]3CCC4=CC(=O)CC[C@]4(C)[C@@]3(F)[C@@H](O)C[C@@]21C` [FLUOXYMESTERONE], for which the AC50 was greater than 10 µM in experiment [1]; greater than 10 µM in experiment [2]; greater than 10 µM in experiment [3]; 0.088 µM on Glucocorticoid receptor; greater than 10 µM in [4]; greater than 10 µM in experiment [5]. Besides, the AC50 (on Adenosine receptor A1; in [6]) was greater than 10 µM in each case.
As to `C=CCC1(C(C)CC)C(=O)NC(=O)NC1=O` (configuration not stated) [TALBUTAL], the AC50 (in experiment [1]; in [2]; in experiment [3]; on Glucocorticoid receptor; in [4]; in experiment [5]) was greater than 10 µM each time. The AC50 (on Adenosine receptor A1; in experiment [6]) was greater than 10 µM in each case.
Take `Cc1cc(O)c(C(=O)N[C@@H](C(=O)N[C@@H]2C(=O)N3C(C(=O)O)=C(CSc4nnnn4C)CS[C@H]23)c2ccc(O)cc2)cn1` [CEFPIRAMIDE]: the half-maximal activity concentration (AC50) (in experiment [1]; in experiment [2]; in [3]; at Glucocorticoid receptor; in experiment [4]; in experiment [5]) was greater than 30 µM in each case. Besides, the AC50 (on Adenosine receptor A1; in [6]) was greater than 30 µM each time.
As to `CCCN(CCC)C(=O)C(CCC(=O)O)NC(=O)c1ccccc1` (configuration not stated) [PROGLUMIDE], the AC50 in experiment [1] is greater than 30 µM; in experiment [2], greater than 10 µM; in [3], greater than 30 µM; at Glucocorticoid receptor, greater than 30 µM; in experiment [4], greater than 10 µM; in experiment [5] it was greater than 30 µM. In addition, the figures for the AC50 (at Adenosine receptor A1; in [6]) were greater than 30 µM and greater than 10 µM, respectively.
For `Cc1cccc(C(C)c2cnc[nH]2)c1C` (configuration not stated) [MEDETOMIDINE], the AC50 (in experiment [1]; in experiment [2]; in [3]; at Glucocorticoid receptor; in experiment [5]; at Adenosine receptor A1) was greater than 30 µM in each case. The AC50 in experiment [6] is greater than 10 µM.
Regarding `CC(Oc1c(Cl)cccc1Cl)C1=NCCN1` (configuration not stated) [LOFEXIDINE], the AC50 (in experiment [1]; in [2]; in experiment [3]; on Glucocorticoid receptor; in [5]; at Adenosine receptor A1) was greater than 30 µM each time. For the same compound, the AC50 in experiment [6] is greater than 30 µM.
For `CCc1c(Cl)c(O)c(Cl)c(O)c1C(=O)O[C@H]1[C@H](O)[C@H](OC)[C@H](OC/C2=C\C=C\C[C@H](O)/C(C)=C/[C@H](CC)[C@@H](O[C@@H]3OC(C)(C)[C@@H](OC(=O)C(C)C)[C@H](O)[C@@H]3O)/C(C)=C/C(C)=C/C[C@@H]([C@@H](C)O)OC2=O)O[C@@H]1C` [FIDAXOMICIN], the AC50 in [1] is greater than 30 µM; in experiment [2], greater than 30 µM; in experiment [3], greater than 10 µM; at Glucocorticoid receptor, greater than 30 µM; in experiment [5], greater than 30 µM; on Adenosine receptor A1, greater than 30 µM.
Turning to `CC(C)(C)c1cc(C(C)(C)C)c(NC(=O)c2c[nH]c3ccccc3c2=O)cc1O` [IVACAFTOR], the concentration at half-maximal activity (AC50) in [1] was 26.9 µM; in [2], greater than 10 µM; in experiment [3], greater than 10 µM; on Glucocorticoid receptor, greater than 30 µM; in experiment [4], greater than 10 µM; in experiment [5], 11.2 µM. The AC50 on Adenosine receptor A1 is greater than 30 µM.
Take `CC(CC(c1ccccc1)c1ccccc1)NC(C)(C)C` (configuration not stated) [TERODILINE]: the AC50 in experiment [1] is greater than 30 µM; in experiment [2], greater than 30 µM; in [3] it was greater than 30 µM; on Cannabinoid receptor 1, greater than 30 µM; in [4] it was greater than 30 µM; in [5], 20 µM. Besides, the results for the AC50 (at Adenosine receptor A1; in experiment [6]) were greater than 30 µM and 3.1 µM, respectively.
For the compound `COc1ccccc1N1CCN(CCCNc2cc(=O)n(C)c(=O)n2C)CC1`, the AC50 in [1] is greater than 30 µM; in experiment [2], 20 µM; in experiment [3], 0.8 µM; on Cannabinoid receptor 1 it was greater than 30 µM; in [4], greater than 30 µM; in experiment [5] it was greater than 30 µM. For the same compound, the AC50 (at Adenosine receptor A1; in [6]) was greater than 30 µM in each case.
`Cn1c(=O)c2c(ncn2CC2OCCO2)n(C)c1=O` [DOXOFYLLINE]: the AC50 (in [1]; in experiment [2]; in experiment [3]; on Cannabinoid receptor 1; in experiment [4]; in experiment [5]) was greater than 30 µM throughout. Further, the AC50 (at Adenosine receptor A1; in [6]) was greater than 30 µM throughout.
In the case of `CN1C(=O)C(O)N=C(c2ccccc2)c2cc(Cl)ccc21` (configuration not stated) [TEMAZEPAM], the AC50 in [1] was greater than 30 µM; in experiment [2], greater than 10 µM; in [3], greater than 10 µM; on Cannabinoid receptor 1, greater than 30 µM; in experiment [4] it was greater than 10 µM; in experiment [5] it was greater than 10 µM. Further, the half-maximal activity concentration (AC50) at Adenosine receptor A1 was greater than 30 µM; in experiment [6], greater than 10 µM.
Regarding `CC(=O)O[C@H]1CC[C@@]2(C)C(=CC[C@@H]3[C@@H]2CC[C@]2(C)C(c4cccnc4)=CC[C@@H]32)C1` [ABIRATERONE ACETATE], the AC50 in experiment [1] was greater than 30 µM; in experiment [2], greater than 30 µM; in experiment [3], greater than 10 µM; at Cannabinoid receptor 1, greater than 30 µM; in experiment [4], greater than 30 µM; in [5], greater than 30 µM. Besides, the AC50 (on Adenosine receptor A1; in experiment [6]) was greater than 30 µM each time.
